Legend:
[1] = as reported in Japanese Patent Public Disclosure No. 25323/84; cited from earlier work
renal tissue NOS = assay: Renal cortical NOS activity (3H-citrulline produced from 3H-arginine) in cyclosporin-induced renal injury rats; type: in vivo, Sprague-Dawley rats; settings: orally administered BH4, cyclosporin-treated rats
Description: (§1) Sprague-Dawley rats at the age of 8 to 10 weeks (supplied from Charles River) (300 g) were divided into the following three experimental groups, and examined by comparison. The animals were grown with a low-salt (0.05%) feed during the experimental period of 6 weeks, and treated for 5 weeks from the second to last weeks of the experiment as follows.
(§2) Each group was observed during the experimental period of 6 weeks. The blood pressure, renal cortical NOS activity and blood BP level were determined by the procedures described below. After 6 weeks, blood was collected from the abdominal aorta under anesthesia with phenobarbital, and then the kidney was perfused with physiological saline, then extracted and histologically examined for the effects of BH4 administration on cyclosporin-induced renal injury.
NOS activity was determined by measuring ^3 H-citrulline produced by renal tissue NOS using 3H-arginine.
(§3) Group-to-group statistic analyses were made by two-way ANOVA. In the following analyses, the significance level was p<0.05.

[2] = Blood pressure by the tail-cuff method in cyclosporin-induced renal injury rats; type: in vivo, Sprague-Dawley rats; settings: until the end of observation (6 weeks); cyclosporin 15 mg/kg/day s.c.; BH4 group: plus BH4 dihydrochloride 10 mg/kg/day oral
Description: as §1, §2
Blood pressure was measured by the tail-cuff method at the start of the experiment and after 2, 4 and 6 weeks.
as §3

[3] = Acute toxicity, oral, rats; settings: rat, in vivo, po
rats = assay: Acute toxicity, oral, rats; settings: rats, oral route
ED-1-positive cells = assay: Renal histochemistry, staining with monoclonal antibody against macrophage cell membrane antigen ED-1; type: in vivo, Sprague-Dawley rats; settings: frozen renal tissues; cyclosporin 15 mg/kg/day s.c.; BH4 group: plus BH4 dihydrochloride 10 mg/kg/day oral
Description: as §1, §2
(§4) Sections were prepared from frozen renal tissues and stained with NADPH-diaphorase for evaluating NOS activity on the tissues. The tissues were also stained with a monoclonal antibody against the macrophage cell membrane antigen ED-1 to examine the NOS isoform.

NOS (NADPH-diaphorase) = assay: Renal histochemistry, NADPH-diaphorase staining; type: in vivo, Sprague-Dawley rats
Description: as §1, §2, §4

[4] = Biopterin (BP) level in blood by HPLC in cyclosporin-induced renal injury rats; type: in vivo, Sprague-Dawley rats; settings: average; cyclosporin 15 mg/kg/day s.c. plus BH4 dihydrochloride 10 mg/kg/day oral
Description: as §1, §2, §3

[5] = test system: cyclosporin-induced renal injury rats; assay: Histopathological findings (arteriolopathy) in renal tissue samples, HE and periodic acid-Shiff staining; type: in vivo, Sprague-Dawley rats
Description: as §1, §2
After collecting urine and measuring blood pressure at week 6, the animals were abdominally incised under anesthesia, bled from the abdominal aorta and perfused with physiological saline via this site. The extracted kidney was fixed in a 10% formaldehyde solution, embedded in paraffin, then sliced by a microtome into renal tissue samples of 4 μm. The samples were stained with hematoxylin/eosin (HE) and periodic acid-Shiff. The incidences of pathological findings, i.e. arteriolopathy in the rat renal tissue samples were examined by comparison.
as §3

C[C@H](O)[C@H](O)C1CNc2nc(N)[nH]c(=O)c2N1 (stereo partly drawn) [(6R,S)-5,6,7,8-tetrahydrobiopterin]
toxicity in words [1]: only slightly toxic

C[C@H](O)[C@H](O)[C@H]1CNc2nc(N)[nH]c(=O)c2N1 [BH4, (6R)-L-erythro-5,6,7,8-tetrahydrobiopterin]
vascular endothelial NOS activity level / function (renal tissue NOS): increased vascular endothelial NOS activity level | Blood pressure [2]: kept at a normal level | LD50 [3]: ≥ 2000 mg/kg | toxicity in words (rats): little toxicity | invasions of ED-1-positive cells (ED-1-positive cells): decreased invasions of ED-1-positive cells | NADPH-diaphorase stainability (NOS (NADPH-diaphorase); frozen renal tissues, cyclosporin 15 mg/kg/day s.c., BH4 group: plus BH4 dihydrochloride 10 mg/kg/day oral): recovered the NADPH-diaphorase stainability | functions of vascular endothelial NOS (NOS (NADPH-diaphorase); renal histochemistry, cyclosporin plus oral BH4 dihydrochloride): normalized the functions of vascular endothelial NOS | decrease of blood BP level as compared with CyA group [4]: 0.002 nmol | histopathological findings of arteriolopathy, conclusion in words ([5]; model rats, BH4 orally administered): remarkably improved histopathological findings | arteriolopathy, result in words with significance ([5]; p<0.0001, cyclosporin 15 mg/kg/day s.c., BH4 group: plus BH4 dihydrochloride 10 mg/kg/day oral): significantly (p<0.0001) inhibited arteriolopathy | Percentage of the incidence of pathological findings in renal tissues: Arteriolopathy ([5]; ± SE, week 6, control group 0.00 ± 0.00, cyclosporin 15 mg/kg/day s.c., BH4 group: plus BH4 dihydrochloride 10 mg/kg/day oral): 36.814 ± 2.093%

From US6288067A, “Prophylactic or therapeutic agents for drug-induced renal injury” (Suntory Limited, priority 1998, dated 2001)
